The source of these data is patent US8063220B2, “Sulfonyl-quinoline derivatives” (Richter Gedeon Nyrt., priority 2007, dated 2011).

In one assay the target is T1, rat mGluR5 (Rattus norvegicus, UniProt P31424).
T1 construct: Rat cerebro-cortical membrane preparation was used; from tissue; host or cells: rat cerebral cortex (membrane preparation)
Briefly: MGluR5 receptor binding test ([3H]-M-MPEP displacement, rat cerebro-cortical membrane preparation). The conditions noted are these: rat mGluR5, [3H]-M-MPEP 2 nM; read-out: mGlu5 Ki. How it is done:
Rat cerebro-cortical membrane preparation was used to determine the binding characteristics of reference compounds and novel compounds to the rat mGluR5. The A18 cell line expressing hmGluR5a (purchased from Euroscreen) was used to determine binding characteristics of the chemical compounds to the human mGluR5a receptor. [3H]-M-MPEP (2 nM) was used as radioligand. The nonspecific binding was determined in the presence of 10 μM M-MPEP.

For the next assay, the target named is T2, rat mGluR1 (Rattus norvegicus, UniProt P23385).
T2 construct: rat cerebellar membrane preparation was used; from tissue; host or cells: rat cerebellum (membrane preparation)
T2 sequence (P23385 19-1199): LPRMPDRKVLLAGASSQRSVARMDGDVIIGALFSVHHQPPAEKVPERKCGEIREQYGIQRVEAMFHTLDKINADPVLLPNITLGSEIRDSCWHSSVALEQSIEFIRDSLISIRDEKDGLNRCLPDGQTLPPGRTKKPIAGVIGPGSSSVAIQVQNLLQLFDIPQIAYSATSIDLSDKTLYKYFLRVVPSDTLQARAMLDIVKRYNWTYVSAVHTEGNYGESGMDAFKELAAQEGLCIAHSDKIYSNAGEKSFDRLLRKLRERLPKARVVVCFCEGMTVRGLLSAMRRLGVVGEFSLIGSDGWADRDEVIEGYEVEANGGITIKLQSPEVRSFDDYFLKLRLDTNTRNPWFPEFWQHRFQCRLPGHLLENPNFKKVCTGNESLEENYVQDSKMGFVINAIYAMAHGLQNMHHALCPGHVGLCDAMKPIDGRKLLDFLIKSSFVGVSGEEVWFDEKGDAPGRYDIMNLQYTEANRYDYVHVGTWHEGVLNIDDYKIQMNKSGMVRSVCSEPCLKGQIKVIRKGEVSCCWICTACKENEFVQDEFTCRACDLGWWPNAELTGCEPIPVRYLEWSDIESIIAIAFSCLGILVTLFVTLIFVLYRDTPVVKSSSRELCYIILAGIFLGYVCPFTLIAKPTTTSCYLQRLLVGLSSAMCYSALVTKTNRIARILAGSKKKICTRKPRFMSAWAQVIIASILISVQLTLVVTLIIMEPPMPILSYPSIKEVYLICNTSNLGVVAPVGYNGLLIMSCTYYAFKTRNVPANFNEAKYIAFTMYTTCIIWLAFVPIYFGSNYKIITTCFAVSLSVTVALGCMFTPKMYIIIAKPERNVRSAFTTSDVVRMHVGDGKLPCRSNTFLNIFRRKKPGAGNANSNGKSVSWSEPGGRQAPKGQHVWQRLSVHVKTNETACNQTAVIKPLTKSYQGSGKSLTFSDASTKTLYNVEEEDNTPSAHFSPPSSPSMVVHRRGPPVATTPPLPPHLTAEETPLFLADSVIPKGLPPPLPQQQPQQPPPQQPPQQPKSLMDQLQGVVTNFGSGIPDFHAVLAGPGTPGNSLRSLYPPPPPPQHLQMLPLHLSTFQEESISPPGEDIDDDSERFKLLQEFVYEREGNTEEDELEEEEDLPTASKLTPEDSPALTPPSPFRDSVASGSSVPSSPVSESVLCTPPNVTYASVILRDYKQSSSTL
In words: MGluR1 receptor binding test ([3H]R214127 displacement, rat cerebellar membrane preparation). The following applies: rat mGluR1, [3H]R214127 3 nM; read-out: mGlu1 Ki. As to the method: MGluR1 receptor binding tests were performed according to modified method of Lavreysen et al. (Mol. Pharm., 2003, 63, 1082). Based on the high homology between the human and rat mGluR1 receptors, rat cerebellar membrane preparation was used to determine the binding characteristics of reference compounds and novel compounds to the rat mGluR1. [3H]R214127 (3 nM) was used as radioligand and the nonspecific binding was determined in the presence of 1 μM of R214127.
IC-50 values were determined from displacement curves by nonlinear regression analysis and were converted to Ki values using the equation method of Cheng and Prusoff (Biochem. Pharmacol., 1973, 22, 3099).

T1 sequence (P31424 21-1203): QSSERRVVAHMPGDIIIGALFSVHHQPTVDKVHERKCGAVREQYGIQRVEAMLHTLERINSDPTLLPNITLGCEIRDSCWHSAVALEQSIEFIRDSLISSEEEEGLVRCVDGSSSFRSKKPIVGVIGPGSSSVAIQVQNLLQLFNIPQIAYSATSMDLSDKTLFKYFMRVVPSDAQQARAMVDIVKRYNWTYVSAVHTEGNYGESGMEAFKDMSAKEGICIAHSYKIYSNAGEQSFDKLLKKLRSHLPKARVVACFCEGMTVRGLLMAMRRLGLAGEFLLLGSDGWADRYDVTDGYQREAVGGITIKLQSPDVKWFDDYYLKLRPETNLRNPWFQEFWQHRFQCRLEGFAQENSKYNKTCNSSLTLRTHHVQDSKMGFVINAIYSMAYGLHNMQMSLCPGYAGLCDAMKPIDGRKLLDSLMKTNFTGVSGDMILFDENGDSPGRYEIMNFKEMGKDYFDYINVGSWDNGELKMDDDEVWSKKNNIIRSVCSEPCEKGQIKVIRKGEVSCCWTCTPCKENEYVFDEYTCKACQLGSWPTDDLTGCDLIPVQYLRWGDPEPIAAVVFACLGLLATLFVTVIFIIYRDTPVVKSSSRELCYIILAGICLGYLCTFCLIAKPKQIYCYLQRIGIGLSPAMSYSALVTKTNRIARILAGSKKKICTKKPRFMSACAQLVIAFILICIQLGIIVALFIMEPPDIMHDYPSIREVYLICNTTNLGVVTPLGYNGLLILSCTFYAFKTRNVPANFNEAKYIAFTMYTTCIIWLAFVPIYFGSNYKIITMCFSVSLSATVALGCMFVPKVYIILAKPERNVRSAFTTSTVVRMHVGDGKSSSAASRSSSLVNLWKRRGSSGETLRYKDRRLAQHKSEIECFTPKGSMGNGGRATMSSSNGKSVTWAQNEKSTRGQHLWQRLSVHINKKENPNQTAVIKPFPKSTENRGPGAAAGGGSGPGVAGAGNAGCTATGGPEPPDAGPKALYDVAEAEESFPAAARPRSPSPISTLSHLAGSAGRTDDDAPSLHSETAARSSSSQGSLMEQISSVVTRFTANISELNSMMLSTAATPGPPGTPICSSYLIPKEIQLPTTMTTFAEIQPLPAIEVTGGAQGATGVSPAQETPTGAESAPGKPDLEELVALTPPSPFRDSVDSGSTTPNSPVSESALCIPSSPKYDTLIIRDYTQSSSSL

Turning to `COc1cccc(-c2c(S(=O)(=O)c3cccc(C#N)c3)cnc3cc(F)ccc23)c1` [Compound 93], the Ki (usually the dissociation constant of the complex between target and ligand, obtained from inhibition or displacement) at rat mGluR5 is below 0.2 µM; at rat mGluR1 it was above 0.5 µM.

For `Cc1ccc(S(=O)(=O)c2cnc3cc(F)ccc3c2-c2cccc(F)c2)cc1Cl` [Compound 94], the Ki was below 0.2 µM on rat mGluR5 and above 0.5 µM at rat mGluR1.

On to `COc1cccc(S(=O)(=O)c2cnc3cc(F)ccc3c2-c2cccc(F)c2)c1` [Compound 95], for which the results for the Ki on rat mGluR5 and on rat mGluR1 were 0.2 to 0.5 µM and above 0.5 µM, respectively.

In the case of `COc1cccc(-c2c(S(=O)(=O)c3ccc(OC)c(Cl)c3)cnc3cc(F)ccc23)c1` [Compound 96], the Ki was 0.2 to 0.5 µM at rat mGluR5 and above 0.5 µM on rat mGluR1.

Turning to `O=S(=O)(c1ccc(F)c(F)c1)c1cnc2cc(F)ccc2c1-c1cccc(Cl)c1` [Compound 97], the Ki on rat mGluR5 and at rat mGluR1 was 0.2 to 0.5 µM in each case.

As to `O=S(=O)(c1ccc(F)c(F)c1)c1cnc2cc(F)ccc2c1-c1cccc(F)c1` [Compound 98], the Ki at rat mGluR5 was below 0.2 µM; at rat mGluR1, 0.2 to 0.5 µM.

As for `COc1ccc(-c2c(S(=O)(=O)c3ccc(F)c(F)c3)cnc3cc(F)ccc23)cc1` [Compound 99], the Ki on rat mGluR5 is below 0.2 µM; on rat mGluR1, above 0.5 µM.

As for `COc1cccc(-c2c(S(=O)(=O)c3ccc(F)c(F)c3)cnc3cc(F)ccc23)c1` [Compound 100], the Ki was below 0.2 µM on rat mGluR5 and above 0.5 µM at rat mGluR1.

As for `O=S(=O)(c1ccc(F)c(F)c1)c1cnc2cc(F)ccc2c1-c1ccc(F)cc1` [Compound 101, 3-(3,4-difluoro-benzenesulfonyl)-7-fluoro-4-(4-fluoro-phenyl)-quinoline], the Ki on rat mGluR5 was below 0.2 µM; at rat mGluR1, 0.2 to 0.5 µM.

Take `O=S(=O)(c1ccc(F)c(Cl)c1)c1cnc2cc(F)ccc2c1-c1ccc(Cl)cc1` [Compound 102]: the Ki on rat mGluR5 is below 0.2 µM; at rat mGluR1, 0.2 to 0.5 µM.

Take `O=S(=O)(c1ccc(F)c(Cl)c1)c1cnc2cc(F)ccc2c1-c1cccc(F)c1` [Compound 103]: the Ki on rat mGluR5 and at rat mGluR1 was below 0.2 µM in each case.

As to `COc1ccc(-c2c(S(=O)(=O)c3ccc(F)c(Cl)c3)cnc3cc(F)ccc23)cc1` [Compound 104], the Ki on rat mGluR5 was below 0.2 µM; at rat mGluR1, 0.2 to 0.5 µM.

Turning to `O=S(=O)(c1ccc(F)c(Cl)c1)c1cnc2cc(F)ccc2c1-c1ccc(F)cc1` [Compound 105], the Ki on rat mGluR5 and at rat mGluR1 was below 0.2 µM in each case.

As for `O=S(=O)(c1cc(Cl)cc(Cl)c1)c1cnc2c(F)cccc2c1-c1cccc(F)c1` [Compound 106], the values for the Ki at rat mGluR5 and at rat mGluR1 were below 0.2 µM and above 0.5 µM, respectively.

As for `COc1ccc(-c2c(S(=O)(=O)c3cc(Cl)cc(Cl)c3)cnc3c(F)cccc23)cc1` [Compound 107], the Ki is below 0.2 µM on rat mGluR5 and above 0.5 µM at rat mGluR1.

Take `COc1cccc(-c2c(S(=O)(=O)c3cc(Cl)cc(Cl)c3)cnc3c(F)cccc23)c1` [Compound 108]: the Ki is below 0.2 µM on rat mGluR5 and above 0.5 µM on rat mGluR1.

With `Cc1ccc(S(=O)(=O)c2cnc3c(F)cccc3c2-c2cccc(Cl)c2)cc1F` [Compound 109], the Ki is below 0.2 µM at rat mGluR5 and above 0.5 µM on rat mGluR1.

For `Cc1ccc(S(=O)(=O)c2cnc3c(F)cccc3c2-c2ccc(Cl)cc2)cc1F` [Compound 110], the Ki was below 0.2 µM on rat mGluR5 and above 0.5 µM on rat mGluR1.

Consider `Cc1ccc(S(=O)(=O)c2cnc3c(F)cccc3c2-c2cccc(F)c2)cc1F` [Compound 111], for which the Ki was below 0.2 µM on rat mGluR5 and above 0.5 µM on rat mGluR1.

`COc1ccc(-c2c(S(=O)(=O)c3ccc(C)c(F)c3)cnc3c(F)cccc23)cc1` [Compound 112]: the Ki at rat mGluR5 is below 0.2 µM; on rat mGluR1 it was above 0.5 µM.

Regarding `COc1cccc(-c2c(S(=O)(=O)c3ccc(C)c(F)c3)cnc3c(F)cccc23)c1` [Compound 113], the Ki at rat mGluR5 was below 0.2 µM; on rat mGluR1 it was above 0.5 µM.

`Cc1ccc(S(=O)(=O)c2cnc3c(F)cccc3c2-c2ccc(F)cc2)cc1F` [Compound 114]: the Ki was below 0.2 µM at rat mGluR5 and above 0.5 µM on rat mGluR1.

With `O=S(=O)(c1cc(F)cc(F)c1)c1cnc2c(F)cccc2c1-c1cccc(Cl)c1` [Compound 115], the Ki on rat mGluR5 was below 0.2 µM; at rat mGluR1 it was 0.2 to 0.5 µM.

With `O=S(=O)(c1cc(F)cc(F)c1)c1cnc2c(F)cccc2c1-c1ccc(Cl)cc1` [Compound 116], the Ki on rat mGluR5 was below 0.2 µM; on rat mGluR1 it was 0.2 to 0.5 µM.

With `COc1ccc(-c2c(S(=O)(=O)c3cc(F)cc(F)c3)cnc3c(F)cccc23)cc1` [Compound 117], the Ki is below 0.2 µM on rat mGluR5 and above 0.5 µM on rat mGluR1.

On to `COc1cccc(-c2c(S(=O)(=O)c3cc(F)cc(F)c3)cnc3c(F)cccc23)c1` [Compound 118], for which the Ki at rat mGluR5 was below 0.2 µM; on rat mGluR1, above 0.5 µM.

Regarding `O=S(=O)(c1cc(F)cc(F)c1)c1cnc2c(F)cccc2c1-c1ccc(F)cc1` [Compound 119], the Ki on rat mGluR5 and on rat mGluR1 was below 0.2 µM in each case.

On to `O=S(=O)(c1ccc(F)c(F)c1)c1cnc2c(F)cccc2c1-c1ccc(Cl)cc1` [Compound 120], for which the Ki at rat mGluR5 is below 0.2 µM; on rat mGluR1, 0.2 to 0.5 µM.

`O=S(=O)(c1ccc(F)c(F)c1)c1cnc2c(F)cccc2c1-c1cccc(F)c1` [Compound 121]: the Ki at rat mGluR5 and at rat mGluR1 was below 0.2 µM in each case.

Turning to `COc1ccc(-c2c(S(=O)(=O)c3ccc(F)c(F)c3)cnc3c(F)cccc23)cc1` [Compound 122], the Ki is below 0.2 µM on rat mGluR5 and above 0.5 µM on rat mGluR1.

`O=S(=O)(c1ccc(F)c(F)c1)c1cnc2c(F)cccc2c1-c1ccc(F)cc1` [Compound 123]: the Ki on rat mGluR5 and at rat mGluR1 was below 0.2 µM in each case.

In the case of `O=S(=O)(c1cc(Cl)cc(Cl)c1)c1cnc2ccc(F)cc2c1-c1cccc(F)c1` [Compound 124], the Ki is below 0.2 µM at rat mGluR5 and 0.2 to 0.5 µM at rat mGluR1.

Consider `COc1ccc(-c2c(S(=O)(=O)c3cc(Cl)cc(Cl)c3)cnc3ccc(F)cc23)cc1` [Compound 125], for which the Ki at rat mGluR5 was below 0.2 µM; at rat mGluR1, above 0.5 µM.

`COc1cccc(-c2c(S(=O)(=O)c3cc(Cl)cc(Cl)c3)cnc3ccc(F)cc23)c1` [Compound 126]: the results for the Ki at rat mGluR5 and on rat mGluR1 were below 0.2 µM and above 0.5 µM, respectively.

As to `Cc1ccc(S(=O)(=O)c2cnc3ccc(F)cc3c2-c2cccc(Cl)c2)cc1F` [Compound 127], the Ki at rat mGluR5 was below 0.2 µM; at rat mGluR1 it was above 0.5 µM.

In the case of `Cc1ccc(S(=O)(=O)c2cnc3ccc(F)cc3c2-c2cccc(F)c2)cc1F` [Compound 128], the Ki on rat mGluR5 is below 0.2 µM; at rat mGluR1 it was above 0.5 µM.

For `COc1ccc(-c2c(S(=O)(=O)c3ccc(C)c(F)c3)cnc3ccc(F)cc23)cc1` [Compound 129], the Ki was below 0.2 µM on rat mGluR5 and above 0.5 µM on rat mGluR1.

Consider `COc1cccc(-c2c(S(=O)(=O)c3ccc(C)c(F)c3)cnc3ccc(F)cc23)c1` [Compound 130], for which the Ki at rat mGluR5 is below 0.2 µM; at rat mGluR1, above 0.5 µM.

Regarding `Cc1ccc(S(=O)(=O)c2cnc3ccc(F)cc3c2-c2ccc(F)cc2)cc1F` [Compound 131], the Ki on rat mGluR5 was below 0.2 µM; on rat mGluR1, above 0.5 µM.

In the case of `O=S(=O)(c1cc(F)cc(F)c1)c1cnc2ccc(F)cc2c1-c1ccc(Cl)cc1` [Compound 132], the Ki is 0.2 to 0.5 µM at rat mGluR5 and above 0.5 µM at rat mGluR1.

As to `COc1ccc(-c2c(S(=O)(=O)c3cc(F)cc(F)c3)cnc3ccc(F)cc23)cc1` [Compound 133], the figures for the Ki on rat mGluR5 and at rat mGluR1 were 0.2 to 0.5 µM and above 0.5 µM, respectively.

For the compound `COc1cccc(-c2c(S(=O)(=O)c3cc(F)cc(F)c3)cnc3ccc(F)cc23)c1` [Compound 134], the Ki is 0.2 to 0.5 µM on rat mGluR5 and above 0.5 µM at rat mGluR1.

With `N#Cc1cccc(S(=O)(=O)c2cnc3ccc(F)cc3c2-c2cccc(Cl)c2)c1` [Compound 135], the values for the Ki at rat mGluR5 and at rat mGluR1 were below 0.2 µM and 0.2 to 0.5 µM, respectively.

`N#Cc1cccc(S(=O)(=O)c2cnc3ccc(F)cc3c2-c2ccc(Cl)cc2)c1` [Compound 136]: the Ki at rat mGluR5 is below 0.2 µM; on rat mGluR1 it was 0.2 to 0.5 µM.

On to `COc1ccc(-c2c(S(=O)(=O)c3cccc(C#N)c3)cnc3ccc(F)cc23)cc1` [Compound 137], for which the Ki on rat mGluR5 was below 0.2 µM; on rat mGluR1, above 0.5 µM.

On to `Cc1ccc(S(=O)(=O)c2cnc3ccc(F)cc3c2-c2cccc(Cl)c2)cc1Cl` [Compound 138], for which the Ki at rat mGluR5 was below 0.2 µM; at rat mGluR1, above 0.5 µM.

`Cc1ccc(S(=O)(=O)c2cnc3ccc(F)cc3c2-c2ccc(Cl)cc2)cc1Cl` [Compound 139]: the Ki at rat mGluR5 is below 0.2 µM; on rat mGluR1, above 0.5 µM.

On to `Cc1ccc(S(=O)(=O)c2cnc3ccc(F)cc3c2-c2cccc(F)c2)cc1Cl` [Compound 140], for which the Ki on rat mGluR5 is below 0.2 µM; on rat mGluR1, above 0.5 µM.

`COc1cccc(-c2c(S(=O)(=O)c3ccc(C)c(Cl)c3)cnc3ccc(F)cc23)c1` [Compound 141]: the Ki is below 0.2 µM on rat mGluR5 and above 0.5 µM on rat mGluR1.

For `Cc1ccc(S(=O)(=O)c2cnc3ccc(F)cc3c2-c2ccc(F)cc2)cc1Cl` [Compound 142], the Ki at rat mGluR5 is below 0.2 µM; at rat mGluR1, above 0.5 µM.

In the case of `COc1ccc(S(=O)(=O)c2cnc3ccc(F)cc3c2-c2ccc(F)cc2)cc1` [Compound 143], the Ki is 0.2 to 0.5 µM at rat mGluR5 and above 0.5 µM at rat mGluR1.
